Legend:
CCRF-CEM cells [1] = test: BrdU incorporation analysis (DNA synthesis); format: cell-based, human; conditions: CCRF-CEM cells treated at IC50 for 24 hrs
Procedure: Cells were cultured as for cell cycle analysis. Before harvesting, they were pulse-labelled with 10 M 5-bromo-2′-deoxyuridine (BrdU) for 30 min. The cells were trypsinized, fixed with ice-cold 70% ethanol, incubated on ice for 30 min, washed with PBS, and resuspended in 2 M HCl for 30 min at room temperature to denature their DNA. Following neutralization with 0.1 M Na2B4O7, the cells were washed with PBS containing 0.5% Tween-20 and 1% BSA. They were then stained with primary anti-BrdU antibody (Exbio) for 30 min at room temperature in the dark. Cells were than washed with PBS and stained with secondary anti-mouse-FITC antibody (Sigma). The cells were then washed with PBS, incubated with propidium iodide (0.1 mg/mL) and RNAse A (0.5 mg/mL) for 1 h at room temperature in the dark, and finally analyzed by flow cytometry using a 488 nm single-beam laser (FACSCalibur, Becton Dickinson).
(§1) However, the major mechanism of action was inhibition of RNA synthesis (BrU incorporation). […] Cell cycle alterations (G1, S, G2/M) were not observed in treated cells under specified experimental conditions.

K562-TAX = test: Cytostatic/cytotoxic MTT assay, K562-TAX; format: cell-based; conditions: Homo sapiens, paclitaxel resistant subline, 72 h, read-out: MTT, IC50 K562-TAX
In short: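 Human cancer lines, including daunorubicin-resistant CEM-DNR (mrp-1/mdr-1 overexpressing) and paclitaxel-resistant K562-TAX (mdr-1), seeded 25,000-30,000 cells/well, pre-incubated 24 h, then treated in duplicate with four-fold dilutions for 72 h at 37° C, 5% CO2. MTT read-out at 540 nm; IC50 from dose-response curves.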

CCRF-CEM cells [2] = test: BrU incorporation analysis (RNA synthesis); format: cell-based, human; conditions: CCRF-CEM cells treated at IC50 for 24 hrs
Procedure: Cells were cultured and treated as for cell cycle analysis. Before harvesting, they were pulse-labelled with 1 mM 5-bromouridine (BrU) for 30 min. The cells were fixed in 1% buffered paraformaldehyde with 0.05% of NP-40, incubated in room temperature for 15 min and than in the fridge overnight. They were then washed in 1% glycin in PBS, washed in PBS and stained with primary anti-BrdU antibody crossreacting to BrU (Exbio) for 30 min at room temperature in the dark. Cells were than washed with PBS and stained with secondary anti-mouse-FITC antibody (Sigma). Following the staining the cells are washed with PBS and fixed with 1% PBS buffered paraformaldehyde with 0.05% of NP-40. The cells were then washed with PBS, incubated with propidium iodide (0.1 mg/mL) and RNAse A (0.5 mg/mL) for 1 h at room temperature in the dark, and finally analyzed by flow cytometry using a 488 nm single-beam laser (FACSCalibur, Becton Dickinson).
as §1

CCRF-CEM cells [3] = test: Cell cycle and apoptosis analysis (flow cytometry, propidium iodide); format: cell-based, human; conditions: CCRF-CEM cells treated at IC50 for 24 hrs
Procedure: (§2) After the incubation period, cells were then washed with cold 1×PBS and fixed in 70% ethanol added dropwise and stored overnight at −20° C. Afterwards, cells were washed in hypotonic citrate buffer, treated with RNase (50 μg/mL) and stained with propidium iodide. Flow cytometry using a 488 nm single-beam laser (Becton Dickinson) was used for measurement. The data were analyzed according to the program ModFitLT (Verity), and apoptosis was expressed as the percentage of cells with a propidium content lower than that in the G0/G1 population. Half of the sample was used for pH3^ser10 antibody (Sigma) labeling and subsequent flow cytometry analysis of mitotic cells.
as §1

CCRF-CEM cells [4] = test: Mitotic cells, pH3Ser10 antibody labeling (flow cytometry); format: cell-based, human; conditions: CCRF-CEM cells treated at IC50 for 24 hrs
Procedure: as §2, §1

Row | Compound | BrdU+ (DNA synthesis), % of total cell populations (CCRF-CEM cells [1]) [%] | IC50 (K562-TAX) [nM] | BrU+ (RNA synthesis), % of total cell populations (CCRF-CEM cells [2]) [%] | G1, % of total cell populations (CCRF-CEM cells [3]) [%] | G2/M, % of total cell populations (CCRF-CEM cells [3]) [%] | S, % of total cell populations (CCRF-CEM cells [3]) [%] | sub-G1 (apoptosis), % of total cell populations (CCRF-CEM cells [3]) [%] | melting point [°C] | pH3Ser10+ (mitosis), % of total cell populations (CCRF-CEM cells [4]) [%]
1 | CN(C)c1ncnc2c1c(I)cn2[C@@H]1O[C@H](CO)[C@@H](O)[C@H]1O [Compound 4h, 4-Dimethylamino-5-iodo-7-(β-D-ribofuranosyl)-7H-pyrrolo[2,3-d]pyrimidine] | 48.7 | 50 | 4.8 | 39.8 | 13.5 | 46.7 | 9.4 | 195 to 197 | 1.3
2 | COc1ncnc2c1c(-c1cccs1)cn2[C@@H]1O[C@H](CO)[C@@H](O)[C@H]1O [Compound 1c, 4-Methoxy-7-(β-D-ribofuranosyl)-5-(thiophen-2-yl)-7H-pyrrolo[2,3-d]pyrimidine] | 38.6 | 6200 | 0.1 | 41.5 | 9.8 | 48.7 | 7.5 | 140 to 143 | 1.1
3 | COc1ncnc2c1c(-c1ccoc1)cn2[C@@H]1O[C@H](CO)[C@@H](O)[C@H]1O [Compound 1b, 5-(Furan-3-yl)-4-methoxy-7-(β-D-ribofuranosyl)-7H-pyrrolo[2,3-d]pyrimidine] | 44.2 | 2820 | 0.7 | 43.5 | 12.3 | 44.2 | 8.5 | 190 to 192 | 1.6

Source: US9586986B2, “Substituted 7-deazapurine ribonucleosides for therapeutic uses” (Institute of Organic Chemistry and Biochemistry ASCR, v.v.i., priority 2014, dated 2017)
